Test results taken from paper PMC7101356, “Cross-site and cross-platform variability of automated patch clamp assessments of drug effects on human cardiac currents in recombinant cells” (Scientific Reports, 2020).
pIC50: −log10 of the molar value.

Tests used:
[1] = molecular target: hCav1.2 (Homo sapiens, UniProt Q13936); assay: Automated patch clamp, hCav1.2 current block; settings: for pIC50: log IC50, half-maximal inhibitory concentration
Method: Peak current was measured during the step to 0 mV. Leak current was measured after applying a saturating concentration of a blocker such as cadmium (200 µM) at the end of each experiment to completely block hCav1.2 current.
Concentration-response relationships for each test article were independently investigated, i.e., each cell received only one test article, typically evaluating multiple concentrations in a cumulative fashion (lowest to highest concentrations). However, some platforms tested only one concentration per well. Each concentration response was based on a minimum of four concentrations, with a minimum of three wells used for each concentration. In cases of high variability, more cells per concentration were recorded. Prior to drug addition, cells received an addition of vehicle to measure non-test article-related effects such as addition artifacts. At the end of the experiment, a supramaximal concentration of a known inhibitory reference compound was applied to assess leak current and appropriate responsiveness of the test system. While it was recommended that a separate group of cells (n ≥ 3) be recorded for each experimental day to determine the baseline response to vehicle and to address day-to-day variability, this was not verified.
These criteria were applied to all APC platforms.
(§1) The steady state current at each concentration was used to determine the concentration-response relationships. Mean concentration-response data were fitted to a standard sigmoidal four-parameter logistic equation (GraphPad Prism 7; GraphPad Inc., La Jolla, CA) of the form: Y=Bottom+(Top−Bottom)/(1+10^∧(LogIC50−X)∗HillSlope) where Y is the current inhibition (in % of pre-drug control), X is the logarithm of drug concentration, and IC50 is the drug concentration producing half-maximal current inhibition. Curve fitting was performed using the following constraints: Top = 100%, Bottom = 0%, Hill Slope <2. No curve fitting was performed in cases with an obvious lack of a concentration-dependent current inhibition and/or small effect size (approximately ≤20%).

[2] = based on CiPA evaluations; cited from earlier work
[3] = molecular target: T1, peak hNav1.5 (Homo sapiens, UniProt Q14524); assay: Automated patch clamp, peak hNav1.5 current block; assay type: cell-based
T1 construct: expressed in transfected cells; host or cells: HEK293 or CHO, depending on site
T1 sequence (Q14524 whole entry): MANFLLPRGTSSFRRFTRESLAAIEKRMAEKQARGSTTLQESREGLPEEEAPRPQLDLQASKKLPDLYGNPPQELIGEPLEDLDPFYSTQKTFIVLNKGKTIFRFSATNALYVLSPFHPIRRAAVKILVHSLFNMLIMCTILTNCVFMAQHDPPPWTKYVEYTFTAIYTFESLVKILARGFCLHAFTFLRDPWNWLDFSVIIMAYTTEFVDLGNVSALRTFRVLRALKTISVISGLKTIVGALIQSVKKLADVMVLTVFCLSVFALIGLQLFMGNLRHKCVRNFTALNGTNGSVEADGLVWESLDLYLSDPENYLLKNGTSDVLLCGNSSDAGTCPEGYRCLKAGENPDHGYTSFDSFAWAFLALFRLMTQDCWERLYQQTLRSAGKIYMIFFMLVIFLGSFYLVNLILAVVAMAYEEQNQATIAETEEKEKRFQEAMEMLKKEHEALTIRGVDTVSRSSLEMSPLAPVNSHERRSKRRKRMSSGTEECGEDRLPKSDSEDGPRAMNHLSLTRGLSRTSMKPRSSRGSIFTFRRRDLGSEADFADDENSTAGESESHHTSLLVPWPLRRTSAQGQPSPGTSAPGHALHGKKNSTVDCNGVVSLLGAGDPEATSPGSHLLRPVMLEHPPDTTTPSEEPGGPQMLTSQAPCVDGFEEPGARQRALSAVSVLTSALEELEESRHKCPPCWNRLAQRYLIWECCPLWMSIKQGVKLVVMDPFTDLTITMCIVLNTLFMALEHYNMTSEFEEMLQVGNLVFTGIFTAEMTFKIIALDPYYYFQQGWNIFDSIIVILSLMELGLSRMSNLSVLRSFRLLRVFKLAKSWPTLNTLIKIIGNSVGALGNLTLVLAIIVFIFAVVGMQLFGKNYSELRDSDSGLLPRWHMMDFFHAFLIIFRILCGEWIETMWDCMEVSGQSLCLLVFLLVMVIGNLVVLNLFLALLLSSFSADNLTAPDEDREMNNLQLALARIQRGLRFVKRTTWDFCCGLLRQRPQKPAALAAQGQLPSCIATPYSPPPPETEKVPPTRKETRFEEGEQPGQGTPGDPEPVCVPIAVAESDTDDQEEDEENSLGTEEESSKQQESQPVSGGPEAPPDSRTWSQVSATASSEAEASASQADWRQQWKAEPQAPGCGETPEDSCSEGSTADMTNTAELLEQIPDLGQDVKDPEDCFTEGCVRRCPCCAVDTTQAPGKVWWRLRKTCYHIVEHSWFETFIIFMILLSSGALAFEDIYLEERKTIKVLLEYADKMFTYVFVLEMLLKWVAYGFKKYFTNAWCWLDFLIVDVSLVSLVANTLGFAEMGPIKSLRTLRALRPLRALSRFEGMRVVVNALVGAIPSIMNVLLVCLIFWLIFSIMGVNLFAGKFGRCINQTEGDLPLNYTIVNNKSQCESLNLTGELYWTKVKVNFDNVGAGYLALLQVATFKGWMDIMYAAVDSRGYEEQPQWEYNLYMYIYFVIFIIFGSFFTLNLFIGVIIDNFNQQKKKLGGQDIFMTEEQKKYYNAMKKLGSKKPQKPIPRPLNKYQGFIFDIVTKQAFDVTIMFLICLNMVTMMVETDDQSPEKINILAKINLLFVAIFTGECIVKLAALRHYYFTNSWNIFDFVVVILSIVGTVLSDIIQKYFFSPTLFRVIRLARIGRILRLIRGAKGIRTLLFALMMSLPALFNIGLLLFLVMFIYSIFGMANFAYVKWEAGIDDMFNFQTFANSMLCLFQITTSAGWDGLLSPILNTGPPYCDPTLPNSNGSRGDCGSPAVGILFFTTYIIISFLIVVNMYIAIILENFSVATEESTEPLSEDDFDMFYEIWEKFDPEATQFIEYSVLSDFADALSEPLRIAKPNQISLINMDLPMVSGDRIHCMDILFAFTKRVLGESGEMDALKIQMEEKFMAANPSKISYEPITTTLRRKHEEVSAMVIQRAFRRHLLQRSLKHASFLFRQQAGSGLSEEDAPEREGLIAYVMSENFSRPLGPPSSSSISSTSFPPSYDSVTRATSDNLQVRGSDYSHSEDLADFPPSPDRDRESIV
Method: Peak current was measured during the depolarizing step to −15 mV. Leak current was measured after applying a saturating concentration of a blocker such as lidocaine (2 mM) at the end of each experiment to completely block hNav1.5 current.
Concentration-response relationships for each test article were independently investigated, i.e., each cell received only one test article, typically evaluating multiple concentrations in a cumulative fashion (lowest to highest concentrations). However, some platforms tested only one concentration per well. Each concentration response was based on a minimum of four concentrations, with a minimum of three wells used for each concentration. In cases of high variability, more cells per concentration were recorded. Prior to drug addition, cells received an addition of vehicle to measure non-test article-related effects such as addition artifacts. At the end of the experiment, a supramaximal concentration of a known inhibitory reference compound was applied to assess leak current and appropriate responsiveness of the test system.
as §1

Cc1cccc(C)c1OCC(C)N (stereo not shown) [mex, mexiletine]
pIC50 ([1]; site s01_p1): 3.43 | pIC50 ([1]; site s06_p4): 3.75 | pIC50 ([1]; site s14_p1): 3.63 | pIC50 ([1]; site s16_p3): 3.60 | pIC50 ([1]; site s18_p1): 3.79 | nH, Hill slope ([1]; site s01_p1): 0.60 | Peak hCav1.2 Ca2+ current inhibition, Mean ([1]; site s01_p1, 1.00E-04 mol/L): 34.0% | Peak hCav1.2 Ca2+ current inhibition, Mean ([1]; site s01_p1, 1.00E-06 mol/L): 10.1% | log IC50, half-maximal inhibitory concentration ([1]; site s02_p2, corrected for rundown): no inh. | Peak hCav1.2 Ca2+ current inhibition, Mean ([1]; site s02_p2, corrected for rundown, 1.00E-04 mol/L): 1.8% | Peak hCav1.2 Ca2+ current inhibition, Mean ([1]; site s02_p2, corrected for rundown, 1.00E-06 mol/L): -11.1% | nH, Hill slope ([1]; site s06_p4): 0.87 | Peak hCav1.2 Ca2+ current inhibition, Mean ([1]; site s06_p4, 1.00E-04 mol/L): 39.1% | Peak hCav1.2 Ca2+ current inhibition, Mean ([1]; site s06_p4, 1.00E-06 mol/L): 0.5% | log IC50, half-maximal inhibitory concentration ([1]; site s11_p1): no inh. | Peak hCav1.2 Ca2+ current inhibition, Mean ([1]; site s11_p1, 1.00E-04 mol/L): 22.9% | Peak hCav1.2 Ca2+ current inhibition, Mean ([1]; site s11_p1, 1.00E-06 mol/L): 12.9% | nH, Hill slope ([1]; site s14_p1): 2.00 | Peak hCav1.2 Ca2+ current inhibition, Mean ([1]; site s14_p1, 1.00E-04 mol/L): 16.2% | Peak hCav1.2 Ca2+ current inhibition, Mean ([1]; site s14_p1, 1.00E-06 mol/L): -17.7% | nH, Hill slope ([1]; site s16_p3): 0.80 | Peak hCav1.2 Ca2+ current inhibition, Mean ([1]; site s16_p3, 1.00E-04 mol/L): 31.7% | Peak hCav1.2 Ca2+ current inhibition, Mean ([1]; site s16_p3, 1.00E-06 mol/L): -0.3% | nH, Hill slope ([1]; site s18_p1): 1.07 | Peak hCav1.2 Ca2+ current inhibition, Mean ([1]; site s18_p1, 1.00E-04 mol/L): 35.7% | Peak hCav1.2 Ca2+ current inhibition, Mean ([1]; site s18_p1, 1.00E-06 mol/L): 2.3% | TdP Risk Category [2]: Low | hNav1.5 IC50 variability (25/75 percentiles) ([3]; across sites and platforms): 4 fold | nH (Hill slope), peak hNav1.5 Na+ current inhibition ([3]; site_platform s01_p1): 0.31 | Peak hNav1.5 Na+ current inhibition, Mean ([3]; site_platform s01_p1, 1.00E-04 mol/L): 89.8% | Peak hNav1.5 Na+ current inhibition, Mean ([3]; site_platform s01_p1, 1.00E-06 mol/L): 57.9% | nH (Hill slope), peak hNav1.5 Na+ current inhibition ([3]; site_platform s02_p2): 0.99 | Peak hNav1.5 Na+ current inhibition, Mean ([3]; site_platform s02_p2, 1.00E-04 mol/L): 54.9% | Peak hNav1.5 Na+ current inhibition, Mean ([3]; site_platform s02_p2, 1.00E-06 mol/L): -1.5% | nH (Hill slope), peak hNav1.5 Na+ current inhibition ([3]; site_platform s04_p3): 0.51 | Peak hNav1.5 Na+ current inhibition, Mean ([3]; site_platform s04_p3, 1.00E-04 mol/L): 47.7% | Peak hNav1.5 Na+ current inhibition, Mean ([3]; site_platform s04_p3, 1.00E-06 mol/L): 8.8% | nH (Hill slope), peak hNav1.5 Na+ current inhibition ([3]; site_platform s06_p4): 1.28 | Peak hNav1.5 Na+ current inhibition, Mean ([3]; site_platform s06_p4, 1.00E-04 mol/L): 62.4% | Peak hNav1.5 Na+ current inhibition, Mean ([3]; site_platform s06_p4, 1.00E-06 mol/L): 2.4% | nH (Hill slope), peak hNav1.5 Na+ current inhibition ([3]; site_platform s07_p6): 0.86 | Peak hNav1.5 Na+ current inhibition, Mean ([3]; site_platform s07_p6, 1.00E-04 mol/L): 79.8% | Peak hNav1.5 Na+ current inhibition, Mean ([3]; site_platform s07_p6, 1.00E-06 mol/L): 7.1% | nH, Hill slope, peak hNav1.5 inhibition ([3]; site_platform s10_p3): 0.84 | Peak hNav1.5 Na+ current inhibition, Mean ([3]; site_platform s10_p3, 1.00E-04 mol/L): 53.9% | Peak hNav1.5 Na+ current inhibition, Mean ([3]; site_platform s10_p3, 1.00E-06 mol/L): 6.6% | nH, Hill slope, peak hNav1.5 inhibition ([3]; site_platform s11_p1): 0.56 | Peak hNav1.5 Na+ current inhibition, Mean ([3]; site_platform s11_p1, 1.00E-04 mol/L): 50.8% | Peak hNav1.5 Na+ current inhibition, Mean ([3]; site_platform s11_p1, 1.00E-06 mol/L): 10.7% | nH, Hill slope, peak hNav1.5 inhibition ([3]; site_platform s12_p2): 0.72 | Peak hNav1.5 Na+ current inhibition, Mean ([3]; site_platform s12_p2, 1.00E-04 mol/L): 58.7% | Peak hNav1.5 Na+ current inhibition, Mean ([3]; site_platform s12_p2, 1.00E-06 mol/L): 4.9% | nH, Hill slope, peak hNav1.5 inhibition ([3]; site_platform s13_p2): 0.89 | Peak hNav1.5 Na+ current inhibition, Mean ([3]; site_platform s13_p2, 1.00E-04 mol/L): 50.5% | Peak hNav1.5 Na+ current inhibition, Mean ([3]; site_platform s13_p2, 1.00E-06 mol/L): 2.3% | nH, Hill slope, peak hNav1.5 inhibition ([3]; site_platform s14_p1): 0.84 | Peak hNav1.5 Na+ current inhibition, Mean ([3]; site_platform s14_p1, 1.00E-04 mol/L): 65.7% | Peak hNav1.5 Na+ current inhibition, Mean ([3]; site_platform s14_p1, 1.00E-06 mol/L): 6.3% | nH, Hill slope, peak hNav1.5 inhibition ([3]; site_platform s15_p1): 0.56 | Peak hNav1.5 Na+ current inhibition, Mean ([3]; site_platform s15_p1, 1.00E-04 mol/L): 88.2% | Peak hNav1.5 Na+ current inhibition, Mean ([3]; site_platform s15_p1, 1.00E-06 mol/L): 30.6% | nH, Hill slope, peak hNav1.5 inhibition ([3]; site_platform s16_p3): 0.69 | Peak hNav1.5 Na+ current inhibition, Mean ([3]; site_platform s16_p3, 1.00E-04 mol/L): 43.0% | Peak hNav1.5 Na+ current inhibition, Mean ([3]; site_platform s16_p3, 1.00E-06 mol/L): 5.6% | nH, Hill slope, peak hNav1.5 inhibition ([3]; site_platform s17_p1): 0.83 | Peak hNav1.5 Na+ current inhibition, Mean ([3]; site_platform s17_p1, 1.00E-04 mol/L): 75.6% | Peak hNav1.5 Na+ current inhibition, Mean ([3]; site_platform s17_p1, 1.00E-06 mol/L): 10.3% | nH, Hill slope, peak hNav1.5 inhibition ([3]; site_platform s18_p1): 0.98 | Peak hNav1.5 Na+ current inhibition, Mean ([3]; site_platform s18_p1, 1.00E-04 mol/L): 83.9% | Peak hNav1.5 Na+ current inhibition, Mean ([3]; site_platform s18_p1, 1.00E-06 mol/L): 6.1% | nH, Hill slope, peak hNav1.5 inhibition ([3]; site_platform s19_p3): 0.51 | Peak hNav1.5 Na+ current inhibition, Mean ([3]; site_platform s19_p3, 1.00E-04 mol/L): 55.6% | Peak hNav1.5 Na+ current inhibition, Mean ([3]; site_platform s19_p3, 1.00E-06 mol/L): 12.4%
